This note sets out measurements from ChEMBL document CHEMBL1268990, “Substituted pyrazoles as novel sEH antagonist: investigation of key binding interactions within the catalytic domain” (Bioorg Med Chem Lett, 2010).

The test system of this data set is Liver microsomes. Nature of the data set: Metabolic stability in human liver microsomes. The data set is classed as ADME, Microsome. For orientation: Liver microsomes are vesicles of endoplasmic reticulum, rich in cytochrome P450 enzymes.

`O=C(Nc1ccc(-n2nc(-c3cccnc3)cc2C(F)(F)F)cn1)c1ccccc1` returned a Stability of 36%.

For `O=C(Nc1ccc(-n2nc(-c3cccnc3)cc2C(F)(F)F)nn1)c1ccccc1`, the Stability came out at 31%.
